Consider 1 compound from US11878276B2, “Nanobiocatalyst and nanobiocatalytic membrane” (University of Vermont and State Agricultural College, priority 2017, dated 2024).

For the experiment, the system named is Gram positive and Gram negative bacteria. The experiment in a line: minimum inhibitory concentration of bismuth. Format: cell-based. The method, then: In particular, in one embodiment, antimicrobial lipophilic bismuth dimercaptopropanol nanoparticles (BisBAL NPs) may be used. In one embodiment, the bismuth concentration on the membrane surface may be approximately 0.437 g/m^2. In one embodiment, the toxic range of Bi^+3 concentration (minimum inhibitory concentration) for Gram positive and Gram negative bacteria is 15-16 μM. […] In one embodiment, the bismuth nanoparticles are roughly spherical and are approximately 20 nm wide. […] In another embodiment, other antibacterial nanoparticles are also contemplated, such as, but not limited to Zinc Oxide (ZnO), Copper Oxide (CuO), Iron Oxide (Fe2O3), and Silver (Ag).

Structures are written as SMILES.

As for `[Bi+3]` [Bi^+3], the “toxic range of Bi^+3 concentration (minimum inhibitory concentration)” value is 15 to 16 µM.
